Measured values reported in article PMC9848270, “Synthesis and biological assessment of indole derivatives containing penta-heterocycles scaffold as novel anticancer agents towards A549 and K562 cells” (Journal of Enzyme Inhibition and Medicinal Chemistry, 2023).
Like-named read-outs stand apart in the source and are kept apart here.

Key:
[1] = system: human non-small cell lung cancer cells (A549); assay: MTT antiproliferative assay, A549; assay type: cell-based; details: for inhibition at 10 µM: A549, 10 μM, read-out: Inhibition rate, A549
Experimental: (§1) A549, PC-3, HepG2 and K562 cells were purchased from the Kunming cell bank of the Chinese academy of sciences. All cell lines were cultured in DMEM or RPMI 1640 complete medium. Logarithmic growth cells were cultured in 96-well plates at a concentration of 10^4 cells per well and pre-cultured for 24 h before adding test compounds. The MTT test with 5-Fluorouracil and Gefitinib as reference compounds were used to evaluate antiproliferative activity of target compounds in four human cancer line cells. For the estimation of the inhibition concentration (IC50), the Graph Pad Prism (GraphPad Software, San Diego, CA) was used.

[2] = system: human prostate cancer cells (PC-3); assay: MTT antiproliferative assay, PC-3; assay type: cell-based; details: Homo sapiens; for IC50: 48 h, MTT assay, read-out: In vitro cytotoxicity IC50, PC-3; for inhibition at 10 µM: read-out: Inhibition rate, PC-3
Experimental: as §1

[3] = system: human liver cancer cells (HepG2); assay: MTT antiproliferative assay, HepG2; assay type: cell-based; details: for inhibition at 10 µM: read-out: Inhibition rate, HepG2; for IC50: MTT assay, 48 h, read-out: In vitro cytotoxicity IC50, HepG2
Experimental: as §1

[4] = system: human chronic myeloid leukaemia cells (K562); assay: MTT antiproliferative assay, K562; assay type: cell-based; details: for inhibition at 10 µM: K562, 10 μM, read-out: Inhibition rate, K562
Experimental: as §1

[5] = MTT cytotoxicity, normal cell line HEK293; assay type: cell-based, human; details: human; for IC50 at 48 h: HEK293 cells (normal cell line), MTT assay, normal cell line, CC50, read-out: In vitro cytotoxicity IC50, HEK293
[6] = system: normal cell line (HEK293); assay: MTT cytotoxicity, normal cell line HEK293; assay type: cell-based, human; details: Homo sapiens, HEK293; 10 μM; read-out: Inhibition rate, HEK293
[7] = A549, 48 h, MTT assay, 48 h, read-out: In vitro cytotoxicity IC50, A549
[8] = K562, 48 h, MTT assay, 48 h, read-out: In vitro cytotoxicity IC50, K562

| SMILES | melting point [°C] | IC50 ([1]; A549, Table 2, unit inferred, repeats Table 1, read-out: A549 (IC50, Table 2)) [µM] | IC50 ([4]; K562, Table 2, unit inferred, repeats Table 1, read-out: K562 (IC50, Table 2)) [µM] | inhibition at 10 µM [1] [%] | IC50 [1, 7] [µM] | IC50 [2] [µM] | inhibition at 10 µM [2] [%] | inhibition at 10 µM [3] [%] | IC50 [3] [µM] | inhibition at 10 µM [4] [%] | IC50 [4, 8] [µM] | IC50 at 48 h [5] [µM] | inhibition at 10 µM [6] [%] | CC50 ([5]; HEK293 cells, Table 2, unit inferred, repeats Table 1) [µM] |
| --- | --- | --- | --- | --- | --- | --- | --- | --- | --- | --- | --- | --- | --- | --- |
| COc1cc(-c2nnc(SCC(=O)Nc3cc(-c4c[nH]c5ccccc45)n[nH]3)n2N)cc(OC)c1OC [Compound 11b, N-(3-(1H-indol-3-yl)-1H-pyrazol-5-yl)-2-((4-amino-5–(3,4,5-trimethoxyphenyl)-4H-1,2,4-triazol-3-yl)thio)acetamide] | 259 to 261 | – | – | 32.6 ± 3.42 | 29.8 ± 4.05 | 5.73 ± 1.69 | 80.3 ± 3.56 | 72.7 ± 4.94 | 10.6 ± 1.42 | 96.4 ± 1.16 | 3.09 ± 0.41 | 20.2 ± 4.08 | 72.1 ± 1.62 | – |
| Nn1c(SCC(=O)Nc2cc(-c3c[nH]c4ccccc34)n[nH]2)nnc1-c1ccccc1Br [Compound 11c, N-(3-(1H-indol-3-yl)-1H-pyrazol-5-yl)-2-((4-amino-5–(2-bromophenyl)-4H-1,2,4-triazol-3-yl)thio)acetamide] | 194 to 195 | – | – | 10.5 ± 0.521 | 67.7 ± 1.35 | 60.8 ± 4.73 | 12.3 ± 2.04 | 10.4 ± 1.73 | 74.7 ± 13.4 | 14.9 ± 1.32 | 43.4 ± 1.96 | 75.4 ± 2.35 | 1.73 ± 2.31 | – |
| Nn1c(Cc2ccc(Cl)cc2)nnc1SCC(=O)Nc1cc(-c2c[nH]c3ccccc23)n[nH]1 [Compound 11d, N-(3-(1H-indol-3-yl)-1H-pyrazol-5-yl)-2-((4-amino-5–(4-chlorobenzyl)-4H-1,2,4-triazol-3-yl)thio)acetamide] | 240 to 241 | – | – | 87.4 ± 12.5 | 4.79 ± 0.21 | 8.42 ± 0.56 | 56.2 ± 9.24 | 16.3 ± 2.1 | 49.6 ± 10.2 | 95.4 ± 0.809 | 3.51 ± 1.05 | 11.6 ± 0.87 | 63.4 ± 7.49 | – |
| COc1ccc(-c2nnc(SCC(=O)Nc3cc(-c4c[nH]c5ccccc45)n[nH]3)n2N)cc1 [Compound 11e, N-(3-(1H-indol-3-yl)-1H-pyrazol-5-yl)-2-((4-amino-5–(4-methoxyphenyl)-4H-1,2,4-triazol-3-yl)thio)acetamide] | 238 to 240 | – | – | 47.9 ± 9.44 | 21.4 ± 4.46 | 11.7 ± 1.64 | 54.7 ± 14.8 | 63.5 ± 20 | 10.4 ± 2.86 | 98.7 ± 0.418 | 4.32 ± 0.53 | 4.94 ± 0.75 | 67.3 ± 1.39 | – |
| Nn1c(SCC(=O)Nc2cc(-c3c[nH]c4ccccc34)n[nH]2)nnc1-c1ccccc1F [Compound 11g, N-(3-(1H-indol-3-yl)-1H-pyrazol-5-yl)-2-((4-amino-5–(2-fluorophenyl)-4H-1,2,4-triazol-3-yl)thio)acetamide] | 226 to 227 | – | – | 67.5 ± 1.65 | 10.1 ± 2.37 | 6.52 ± 1.85 | 72.2 ± 13.2 | 74.9 ± 25.5 | 9.65 ± 5.87 | 98.5 ± 0.653 | 3.78 ± 0.54 | 5.05 ± 1.17 | 65.4 ± 6.38 | – |

The next lines start with results.

| melting point [°C] | IC50 ([1]; A549, Table 2, unit inferred, repeats Table 1, read-out: A549 (IC50, Table 2)) [µM] | IC50 ([4]; K562, Table 2, unit inferred, repeats Table 1, read-out: K562 (IC50, Table 2)) [µM] | SMILES | inhibition at 10 µM [1] [%] | IC50 [1, 7] [µM] | IC50 [2] [µM] | inhibition at 10 µM [2] [%] | inhibition at 10 µM [3] [%] | IC50 [3] [µM] | inhibition at 10 µM [4] [%] | IC50 [4, 8] [µM] | IC50 at 48 h [5] [µM] | inhibition at 10 µM [6] [%] | CC50 ([5]; HEK293 cells, Table 2, unit inferred, repeats Table 1) [µM] |
| --- | --- | --- | --- | --- | --- | --- | --- | --- | --- | --- | --- | --- | --- | --- |
| 214 to 215 | – | – | Nn1c(SCC(=O)Nc2cc(-c3c[nH]c4ccccc34)n[nH]2)nnc1-c1ccc(Cl)cc1 [Compound 11f, N-(3-(1H-indol-3-yl)-1H-pyrazol-5-yl)-2-((4-amino-5–(4-chlorophenyl)-4H-1,2,4-triazol-3-yl)thio)acetamide] | 32.8 ± 4.22 | 11.8 ± 3 | 19.1 ± 8.43 | 28.9 ± 3.01 | 46.9 ± 6.62 | 9.04 ± 0.93 | 25 ± 3.24 | 32.3 ± 4.05 | 18.1 ± 3.14 | 40.1 ± 2.19 | – |
| 195 to 197 | 1.15 ± 0.26 | 0.0639 ± 0.02 | Nn1c(SCC(=O)Nc2cc(-c3c[nH]c4ccccc34)n[nH]2)nnc1-c1cccnc1 [Compound 11h, N-(3-(1H-indol-3-yl)-1H-pyrazol-5-yl)-2-((4-amino-5-(pyridine-3-yl)-4H-1,2,4-triazol-3-yl)thio)acetamide] | 97.8 ± 0.354 | 1.15 ± 0.26 | 3.16 ± 0.23 | 65.1 ± 0.595 | 93.6 ± 0.215 | 1.23 ± 0.06 | 98.6 ± 0.417 | 0.06 | 1.79 ± 0.63 | 77.8 ± 4.16 | 1.79 ± 0.63 |
| 170 to 172 | – | – | Nn1c(SCC(=O)Nc2cc(-c3c[nH]c4ccccc34)n[nH]2)nnc1-c1ccncc1 [Compound 11o, N-(3-(1H-indol-3-yl)-1H-pyrazol-5-yl)-2-((4-amino-5-(pyridin-4-yl)-4H-1,2,4-triazol-3-yl)thio)acetamide] | – | 30.3 ± 7 | 38.3 ± 1.75 | – | – | 33.4 ± 7.97 | – | 66 ± 3.48 | 21.8 ± 1.76 | – | – |
